{"source": "paper PMC3089805", "about": "(Chemmedchem, 2010)", "data": [{"test_system": "C. jejuni strain H840", "test": "MIC determination, liquid microdilution, C. jejuni", "assay_type": "cell-based", "settings": "Campylobacter jejuni, H840, 27 h, read-out: MIC C. jejuni", "units": {"MIC": "µM"}, "values": [{"smiles": "N#Cc1ccc(C(=O)Nc2ncc([N+](=O)[O-])s2)cc1", "note": "[Analogue 21, 4-Cyano-N-(5-nitrothiazol-2-yl)benzamide]", "MIC": 43.8}, {"smiles": "O=C(CCc1ccccc1)Nc1ncc([N+](=O)[O-])s1", "note": "[Analogue 44, N-(5-Nitrothiazol-2-yl)-3-phenylpropanamide]", "MIC": 1.8}, {"smiles": "O=C(Nc1ncc([N+](=O)[O-])s1)c1cc2cc([N+](=O)[O-])ccc2o1", "note": "[Analogue 73, 5-Nitro-N-(5-nitrothiazol-2-yl)benzofuran-2-carboxamide]", "MIC": 4.5}, {"smiles": "O=C(Nc1ncc([N+](=O)[O-])s1)c1cccc(F)c1", "note": "[Analogue 7, 3-Fluoro-N-(5-nitrothiazol-2-yl)benzamide]", "MIC": 11.2}, {"smiles": "O=C(Nc1ncc([N+](=O)[O-])s1)c1ccc(-c2ccsc2)o1", "note": "[Analogue 71, N-(5-Nitrothiazol-2-yl)-5-(thiophen-3-yl)furan-2-carboxamide]", "MIC": 99.6}, {"smiles": "O=C(Nc1ncc([N+](=O)[O-])s1)c1c(F)cccc1F", "note": "[Analogue 11, 2,6-Difluoro-N-(5-nitrothiazol-2-yl)benzamide]", "MIC": 14}, {"smiles": "CC1=C(C(=O)Nc2ncc([N+](=O)[O-])s2)Cc2ccccc21", "note": "[Analogue 47, 3-Methyl-N-(5-nitrothiazol-2-yl)indene-2-carboxamide]", "MIC": 26.5}, {"smiles": "O=C(Nc1ncc([N+](=O)[O-])s1)c1ccc(F)c([N+](=O)[O-])c1", "note": "[Analogue 37, 4-Fluoro-3-nitro-N-(5-nitrothiazol-2-yl)benzamide]", "MIC": 51.2}, {"smiles": "COc1cccc(C(=O)Nc2ncc([N+](=O)[O-])s2)c1", "note": "[Analogue 29, 3-Methoxy-N-(5-nitrothiazol-2-yl)benzamide]", "MIC": 7.2}, {"smiles": "O=C(Nc1ncc([N+](=O)[O-])s1)c1sccc1Cl", "note": "[Analogue 78, 3-Chloro-N-(5-nitrothiazol-2-yl)thiophene-2-carboxamide]", "MIC": 20.7}, {"smiles": "O=C(Nc1ncc([N+](=O)[O-])s1)c1cc2ccccc2o1", "note": "[Analogue 72, N-(5-Nitrothiazol-2-yl)benzofuran-2-carboxamide]", "MIC": 111}, {"smiles": "O=C(Nc1ncc([N+](=O)[O-])s1)c1ccc(F)c(F)c1", "note": "[Analogue 10, 3,4-Difluoro-N-(5-nitrothiazol-2-yl)benzamide]", "MIC": 5.3}, {"smiles": "O=C(Nc1ncc([N+](=O)[O-])s1)c1ccc(-c2cccc(F)c2)o1", "note": "[Analogue 67, 5-(3-Fluorophenyl)-N-(5-nitrothiazol-2-yl)furan-2-carboxamide]", "MIC": 24}, {"smiles": "O=C(Nc1ncc([N+](=O)[O-])s1)c1cc(F)c(F)cc1F", "note": "[Analogue 14, 2,4,5-Trifluoro-N-(5-nitrothiazol-2-yl)benzamide]", "MIC": 9.9}, {"smiles": "O=C(Nc1ncc([N+](=O)[O-])s1)[C@@H]1C[C@H]1c1ccccc1", "note": "[Analogue 46, (1R,2R)-N-(5-Nitrothiazol-2-yl)-2-phenylcyclopropanecarboxamide]", "MIC": 2.6}, {"smiles": "O=C(CCCc1ccccc1)Nc1ncc([N+](=O)[O-])s1", "note": "[Analogue 45, N-(5-Nitrothiazol-2-yl)-4-phenylbutanamide]", "MIC": 1.3}, {"smiles": "COc1ccccc1C(=O)Nc1ncc([N+](=O)[O-])s1", "note": "[Analogue 28, 2-Methoxy-N-(5-nitrothiazol-2-yl)benzamide]", "MIC": 17.9}, {"smiles": "O=C(Nc1ncc([N+](=O)[O-])s1)c1ccc(-c2cccc(Cl)c2)s1", "note": "[Analogue 81, 5-(3-Chlorophenyl)-N-(5-nitrothiazol-2-yl)thiophene-2-carboxamide]", "MIC": 5.5}, {"smiles": "O=C(Nc1ncc([N+](=O)[O-])s1)c1c(F)cc(F)cc1F", "note": "[Analogue 12, 2,4,6-Trifluoro-N-(5-nitrothiazol-2-yl)benzamide]", "MIC": 9.9}, {"smiles": "O=C(Nc1ncc([N+](=O)[O-])s1)c1ccc(C(F)(F)F)cc1[N+](=O)[O-]", "note": "[Analogue 36, 2-Nitro-N-(5-nitrothiazol-2-yl)-4-(trifluoromethyl)benzamide]", "MIC": 88.3}, {"smiles": "O=C(Nc1ncc([N+](=O)[O-])s1)c1ccc(-c2cccc(Cl)c2)o1", "note": "[Analogue 66, 5-(3-Chlorophenyl)-N-(5-nitrothiazol-2-yl)furan-2-carboxamide]", "MIC": 22.9}, {"smiles": "O=C(Nc1ncc([N+](=O)[O-])s1)c1ccc(-c2ccoc2)s1", "note": "[Analogue 83, 5-(Furan-3-yl)-N-(5-nitrothiazol-2-yl)thiophene-2-carboxamide]", "MIC": 12.4}]}, {"test_system": "H. pylori strain 26695", "test": "MIC determination, liquid microdilution, H. pylori", "assay_type": "cell-based", "settings": "Helicobacter pylori, 26695, 27 h, read-out: MIC H. pylori", "units": {"MIC": "µM"}, "values": [{"smiles": "COc1cc(C(F)(F)F)ccc1C(=O)Nc1ncc([N+](=O)[O-])s1", "note": "[Analogue 32, 2-Methoxy-N-(5-nitrothiazol-2-yl)-4-(trifluoromethyl)benzamide]", "MIC": 0.9}, {"smiles": "O=C(Nc1ncc([N+](=O)[O-])s1)c1c(F)c(F)c(F)c(F)c1F", "note": "[Analogue 16, 2,3,4,5,6-Pentafluoro-N-(5-nitrothiazol-2-yl)benzamide]", "MIC": 7.4}, {"smiles": "N#Cc1ccc(C(=O)Nc2ncc([N+](=O)[O-])s2)cc1", "note": "[Analogue 21, 4-Cyano-N-(5-nitrothiazol-2-yl)benzamide]", "MIC": 9.1}, {"smiles": "O=C(CCc1ccccc1)Nc1ncc([N+](=O)[O-])s1", "note": "[Analogue 44, N-(5-Nitrothiazol-2-yl)-3-phenylpropanamide]", "MIC": 21.6}, {"smiles": "O=C(Nc1ncc([N+](=O)[O-])s1)c1cc2cc([N+](=O)[O-])ccc2o1", "note": "[Analogue 73, 5-Nitro-N-(5-nitrothiazol-2-yl)benzofuran-2-carboxamide]", "MIC": 4.5}, {"smiles": "O=C(Nc1ncc([N+](=O)[O-])s1)c1cccc(F)c1", "note": "[Analogue 7, 3-Fluoro-N-(5-nitrothiazol-2-yl)benzamide]", "MIC": 0.9}, {"smiles": "O=C(Nc1ncc([N+](=O)[O-])s1)c1ccc(-c2ccsc2)o1", "note": "[Analogue 71, N-(5-Nitrothiazol-2-yl)-5-(thiophen-3-yl)furan-2-carboxamide]", "MIC": 6.2}, {"smiles": "O=C(Nc1ncc([N+](=O)[O-])s1)c1c(F)cccc1F", "note": "[Analogue 11, 2,6-Difluoro-N-(5-nitrothiazol-2-yl)benzamide]", "MIC": 0.7}, {"smiles": "CC1=C(C(=O)Nc2ncc([N+](=O)[O-])s2)Cc2ccccc21", "note": "[Analogue 47, 3-Methyl-N-(5-nitrothiazol-2-yl)indene-2-carboxamide]", "MIC": 1.7}, {"smiles": "O=C(Nc1ncc([N+](=O)[O-])s1)c1ccc(F)c([N+](=O)[O-])c1", "note": "[Analogue 37, 4-Fluoro-3-nitro-N-(5-nitrothiazol-2-yl)benzamide]", "MIC": 1.6}, {"smiles": "COc1cccc(C(=O)Nc2ncc([N+](=O)[O-])s2)c1", "note": "[Analogue 29, 3-Methoxy-N-(5-nitrothiazol-2-yl)benzamide]", "MIC": 1.3}, {"smiles": "O=C(Nc1ncc([N+](=O)[O-])s1)c1sccc1Cl", "note": "[Analogue 78, 3-Chloro-N-(5-nitrothiazol-2-yl)thiophene-2-carboxamide]", "MIC": 5.2}, {"smiles": "O=C(Nc1ncc([N+](=O)[O-])s1)c1cc2ccccc2o1", "note": "[Analogue 72, N-(5-Nitrothiazol-2-yl)benzofuran-2-carboxamide]", "MIC": 0.6}, {"smiles": "O=C(Nc1ncc([N+](=O)[O-])s1)c1ccc(F)c(F)c1", "note": "[Analogue 10, 3,4-Difluoro-N-(5-nitrothiazol-2-yl)benzamide]", "MIC": 1.8}, {"smiles": "O=C(Nc1ncc([N+](=O)[O-])s1)c1ccc(-c2cccc(F)c2)o1", "note": "[Analogue 67, 5-(3-Fluorophenyl)-N-(5-nitrothiazol-2-yl)furan-2-carboxamide]", "MIC": 1.5}, {"smiles": "O=C(Nc1ncc([N+](=O)[O-])s1)c1cc(F)c(F)cc1F", "note": "[Analogue 14, 2,4,5-Trifluoro-N-(5-nitrothiazol-2-yl)benzamide]", "MIC": 0.8}, {"smiles": "O=C(Nc1ncc([N+](=O)[O-])s1)[C@@H]1C[C@H]1c1ccccc1", "note": "[Analogue 46, (1R,2R)-N-(5-Nitrothiazol-2-yl)-2-phenylcyclopropanecarboxamide]", "MIC": 13.8}, {"smiles": "O=C(CCCc1ccccc1)Nc1ncc([N+](=O)[O-])s1", "note": "[Analogue 45, N-(5-Nitrothiazol-2-yl)-4-phenylbutanamide]", "MIC": 0.3}, {"smiles": "COc1ccccc1C(=O)Nc1ncc([N+](=O)[O-])s1", "note": "[Analogue 28, 2-Methoxy-N-(5-nitrothiazol-2-yl)benzamide]", "MIC": 1.8}, {"smiles": "O=C(Nc1ncc([N+](=O)[O-])s1)c1ccc(-c2cccc(Cl)c2)s1", "note": "[Analogue 81, 5-(3-Chlorophenyl)-N-(5-nitrothiazol-2-yl)thiophene-2-carboxamide]", "MIC": 0.7}, {"smiles": "O=C(Nc1ncc([N+](=O)[O-])s1)c1c(F)cc(F)cc1F", "note": "[Analogue 12, 2,4,6-Trifluoro-N-(5-nitrothiazol-2-yl)benzamide]", "MIC": 4.9}, {"smiles": "O=C(Nc1ncc([N+](=O)[O-])s1)c1ccc(C(F)(F)F)cc1[N+](=O)[O-]", "note": "[Analogue 36, 2-Nitro-N-(5-nitrothiazol-2-yl)-4-(trifluoromethyl)benzamide]", "MIC": 8.3}, {"smiles": "O=C(Nc1ncc([N+](=O)[O-])s1)c1ccc(-c2cccc(Cl)c2)o1", "note": "[Analogue 66, 5-(3-Chlorophenyl)-N-(5-nitrothiazol-2-yl)furan-2-carboxamide]", "MIC": 1.1}, {"smiles": "O=C(Nc1ncc([N+](=O)[O-])s1)c1ccc(-c2ccoc2)s1", "note": "[Analogue 83, 5-(Furan-3-yl)-N-(5-nitrothiazol-2-yl)thiophene-2-carboxamide]", "MIC": 7.8}]}]}
